Test results from publication PMC4718634, “Murine GPRC6A Mediates Cellular Responses to L-Amino Acids, but Not Osteocalcin Variants” (PLoS ONE, 2016).
Entries after “also recorded” stand apart in the source; their conditions may differ. Bridge positions count the residues as written; N and C are the ends. Ends that are not written are not given here.

Legend:
[1] = tested on: GPRC6A; set-up: method as in PMID 15576628; conditions: chimera with goldfish 5.24 receptor and full length GPRC6A; ref [1]; cited from earlier work
[2] = molecular target: T1, mGPRC6A (mouse GPRC6A) (Mus musculus, UniProt Q8K4Z6); test: Ca^2+i mobilisation, FlpIn-TREx-HEK293-mGPRC6A cells; assay type: cell-based
T1 sequence (Q8K4Z6 21-928): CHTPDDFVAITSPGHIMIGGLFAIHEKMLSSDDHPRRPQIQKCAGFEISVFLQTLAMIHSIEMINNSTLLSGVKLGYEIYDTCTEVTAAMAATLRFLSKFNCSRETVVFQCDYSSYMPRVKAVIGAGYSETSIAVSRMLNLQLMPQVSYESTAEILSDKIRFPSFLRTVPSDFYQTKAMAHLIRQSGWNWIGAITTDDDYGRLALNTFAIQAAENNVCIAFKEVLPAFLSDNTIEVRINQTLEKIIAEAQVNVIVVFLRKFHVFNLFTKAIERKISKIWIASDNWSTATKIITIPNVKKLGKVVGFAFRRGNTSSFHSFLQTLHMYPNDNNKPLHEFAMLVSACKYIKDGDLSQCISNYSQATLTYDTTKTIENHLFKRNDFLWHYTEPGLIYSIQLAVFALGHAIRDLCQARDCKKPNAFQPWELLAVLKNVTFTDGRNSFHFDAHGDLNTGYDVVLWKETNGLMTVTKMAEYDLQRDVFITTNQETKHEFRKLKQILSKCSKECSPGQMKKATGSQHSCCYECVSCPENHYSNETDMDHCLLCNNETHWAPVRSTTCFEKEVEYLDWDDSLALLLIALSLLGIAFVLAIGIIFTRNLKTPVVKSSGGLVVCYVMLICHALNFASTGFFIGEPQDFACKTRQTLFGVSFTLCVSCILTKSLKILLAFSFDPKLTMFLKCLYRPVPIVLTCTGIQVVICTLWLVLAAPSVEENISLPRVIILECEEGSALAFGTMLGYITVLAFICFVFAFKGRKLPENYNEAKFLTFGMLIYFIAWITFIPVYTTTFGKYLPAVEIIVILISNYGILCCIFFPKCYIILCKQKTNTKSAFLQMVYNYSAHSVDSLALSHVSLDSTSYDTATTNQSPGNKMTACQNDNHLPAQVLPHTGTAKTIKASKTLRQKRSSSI
Protocol: (§1) pcDNA 5/FRT/TO constructs were isogenically integrated into a FlpIn-TREx-HEK293 cell line (Life Technologies). FlpIn-TREx-HEK293-mGPRC6A and FlpIn-TREx-HEK293-hGPRC6A cells were then selected using 600 μg/ml hygromycin and 5 μg/ml blasticidin and grown in culture medium consisting of Dulbecco’s Modified Eagle Medium (DMEM), supplemented with 10% (v/v) foetal bovine serum (FBS) at 37°C in 5% CO2 and were sub-cultured in a 1:3 ratio every 3–4 days. Cells were cultured overnight in the presence of 1 μg/ml tetracycline to induce GPRC6A expression. […] 48 h after transfection, cells were selected using 3 μg/ml puromycin and grown as above.
FlpIn-TREx-HEK293-mGPRC6A cells were seeded into T75 flasks at 70% confluency. Cells were transfected with 15μg of plasmid DNA (Gαq or GαqG66D) with Lipofectamine LTX according to manufacturer's instructions, then incubated for 24h at 37°C in 5% CO2. Cells were plated into 96-well plates (10^5 cells/well) and equilibrated at 37°C in 5% CO2 for 4-6h to adhere, whereupon cells were serum starved overnight at 37°C in 5% CO2. For the assay, cells were washed twice in Ca^2+ assay buffer (150 mM NaCl, 2.6 mM KCl, 1.2 mM MgCl2, 10 mM dextrose, 10 mM HEPES, 2.2 mM CaCl2, 0.5% (w/v) BSA and 4 mM probenecid; pH 7.4). Buffer was then replaced with Ca^2+ assay buffer containing 1μM Fluo-4-AM and incubated for 1h at 37°C in 5% CO2. Cells were washed twice more and replaced with Ca^2+ assay buffer at 37°C. Serial dilutions of test agonists were added by injection in a Flexstation™ (Molecular Devices) and fluorescence was measured at 485nm excitation and 520nm emission wavelengths. Agonist responses were normalised to the peak of response to 100 μM ATP.
(§2) Data for all HEK293 assays represent the mean ± SEM of at least three independent experiments (except cell impedance, n = 2). For GLP-1 release, the data represent mean ± SEM of three to five independent experiments (except for OCN, wash; n = 2). For insulin release assays, data represent the mean ± SEM of three independent experiments (except for islet studies; n = 2). Insulin release data were normalised to the response to vehicle in either low or high [glucose]. Statistical analysis for GLP-1 release data were performed by one-way ANOVA, followed by Sidak’s multiple comparisons test (treating wash / no wash datasets separately). Statistical analyses for insulin release data were performed by two-way ANOVA (with [glucose] and drug treatment as group variables), followed by Sidak’s multiple comparisons test. Where only high [glucose] groups were evaluated, statistical analysis was by one-way ANOVA followed by Sidak’s multiple comparisons test.

[3] = molecular target: T1, mGPRC6A (mouse GPRC6A); test: Cyclic AMP accumulation, FlpIn-TREx-HEK293-mGPRC6A cells; assay type: cell-based; conditions: 30 min, 0.5 mM IBMX; Alphascreen; Fig 3A
Protocol: as §1
HEK293-mGPRC6A cells were seeded at a density of 10^5 cells per well into PDL-coated 96-well plates and incubated overnight in DMEM, supplemented with 10% FBS (v/v) at 37°C in 5% CO2. Cells were then incubated in 90 μl of stimulation buffer (HBSS containing 5 mM HEPES, 0.1% BSA (w/v), 0.5 mM IBMX; pH 7.4) for 30 min at 37°C. Test compounds (10 μl at 10 x final) were added and cells were incubated for an additional 30 min at 37°C. The medium was removed and cells were incubated in 50 μl of ice-cold 100% ethanol. Once evaporated, 100 μl of lysis buffer (5 mM HEPES, 0.1% BSA (w/v), 0.3% Tween-20; pH 7.4) was added to the cells and samples were stored at -20°C until further analysis. Samples were analysed using the Alphascreen® cAMP assay kit (Perkin Elmer) following manufacturer instructions. Briefly, 10 μl of lysates were added to a 384-well Optiplate. After addition of 5 μl of acceptor bead mix, plate was incubated at RT for 30 min followed by addition of 15 μl of donor bead mix. After overnight (16 h) incubation at RT, plates were read using the Envision plate reader.

[4] = tested on: GLUTag cells; test: GLP-1 release from GLUTag cells; assay type: cell-based, murine; conditions: 0.01–10 ng/ml; with or without cell washing; 2 h; Fig 6A
Protocol: Intestinal L-cell model GLUTag cells were seeded in 24-well plates coated with Matrigel and incubated for 6 days in DMEM with 10% FBS, 100 U/ml penicillin, 100 μg/ml streptomycin at 37°C in 5% CO2 and grown for 4–5 days. Where indicated, cells were washed (1 or 2 x 1h) with Krebs-HEPES buffer (20 mM HEPES, 118 mM NaCl, 4.7 mM KCl, 1.2 mM MgSO4, 5 mM NaHCO3, 1.2 mM KH2PO4, 2.5 mM CaCl2, 5.5 mM glucose, 0.2% BSA (w/v), pH 7.2) containing vildagliptin (300 μM) prior to addition of test compounds in the same buffer. After 2 h incubation at 37°C in 5% CO2, the supernatant was recovered and centrifuged at 500 rpm for 5 min. Where used, NPS-2143 pre-treatment was for 30 min.
GLP-1 content in the cell supernatant was measured by ELISA (EGLP-35K, Millipore), according to manufacturer’s instructions after overnight incubation of 15 μl supernatant in 100 μl Krebs-HEPES buffer at 4°C. After 5 x washes, 200 μl of detection conjugate was added and incubated for 2 h at RT. After 3 x washes the reaction was developed with 200 μl of diluted substrate (1:200) for 20 min and terminated by addition of 50 μl stop solution. After 5 min, fluorescence was then measured using 355 nm excitation and 460 nm emission, transforming the obtained signal into pmol GLP-1/well/ml and corrected for GLUTag cell protein content as determined using the method of Bradford (1976).
as §2, with “Concentration-response data were analysed using a three or four parameter logistic function (Motulsky & Christopoulos, 2004) to generate estimates of agonist potency (LogEC50). Data” for “Data”

[5] = tested on: β-TC6 cells; test: Insulin release from β-TC6 cells; assay type: cell-based, murine; conditions: OCN 0.03–100 ng/ml; both glucose concentrations; S3 Fig A
Protocol: (§3) MIN6 or βTC-6 cells were seeded in 24-well plates at 170,000 cells per well in DMEM (containing 4.5g/L glucose, 10 mM HEPES, 100 U/ml penicillin, 100 μg/ml streptomycin and 15% de-complemented FBS) and incubated at 37°C / 5% CO2 for 72 h. Cells were then washed with 500 μl PBS and incubated in 500 μl deprivation media (DMEM with zero glucose, 10 mM HEPES, 1 mM Na-pyruvate, 100 U/ml penicillin, 100 μg/ml streptomycin, 15% de-complemented FBS) for 2 h at 37°C. Media was aspirated and after washing with 500 μl PBS, cells were treated with 250 μl of Krebs buffer (250 mM NaCl, 5.9 mM KCl, 1.2 mM MgCl2, 1.3 mM CaCl2, 25 mM HEPES, 0.1% BSA (w/v), and 2 mM or 16.7 mM glucose; pH 7.4) in the presence or absence of test compound. After incubation for 2 h at 37°C, the assay was terminated by placing the plates on ice and supernatants were transferred to a 96-well plate in preparation for insulin ELISA (Alpco) following manufacturer’s instructions. The cell monolayer was washed twice with 500 μl of PBS and then lysed using 250 μl of 1 N NaOH prior to protein measurement by the method of Bradford (1976).
as §2, with “Concentration-response data were analysed using a three or four parameter logistic function (Motulsky & Christopoulos, 2004) to generate estimates of agonist potency (LogEC50). Data” for “Data”

[6] = tested on: INS-1(832) cells; test: Label-free cell impedance, INS-1(832) cells; assay type: cell-based, rat; conditions: Gprc6a-negative; EBSS, 2.8 mM glucose; Fig 7; two-way ANOVA, *P < 0.05, **P < 0.01 vs Vehicle; listed as synthetic mouse OCN
Protocol: For INS-1 cells, 100 μl of medium (RPMI 1640 no glucose, 10% FBS, 55 μM β-mercaptoethanol, 1 mM sodium pyruvate, 10 mM HEPES, 100 U/ml penicillin, 100 μg/ml streptomycin, 11.1 mM glucose) was added per well to an E-plate 96 and a background reading taken. Cells were seeded at 2 x 10^4 / well and the plates incubated in the instrument for 48 h. On the day of the experiment, media was changed to EBSS buffer (180 μl; 2.8 mM glucose, 1.8 mM CaCl2, 5.3 mM KCl, 0.8 mM MgSO4, 117 mM NaCl, 26 mM NaHCO3, 1 mM NaH2PO4). After 2 h incubation, cells were stimulated with 20 μl test compound (10 x final) prepared in the same buffer. Data capture and analysis were as for HEK293 cells.

[7] = tested on: MIN6 cells; test: Insulin release from MIN6 cells; assay type: cell-based, murine; conditions: mouse OCN 0.03–30 ng/mL, 0.03–100 ng/mL (Fig 6B legend); low and high glucose
Protocol: as §3
as §2, with “Concentration-response data were analysed using a three or four parameter logistic function (Motulsky & Christopoulos, 2004) to generate estimates of agonist potency (LogEC50). Data” for “Data”

## NCCCC[C@H](N)C(=O)O [L-lysine]
[1]
  agonist response of GPRC6A: mediates responses to L-amino acids
[2]
  EC50: 15.8 µM
[2]; calcium mobilisation and inositol phosphate accumulation, Discussion
  potency at murine GPRC6A (calcium and inositol phosphate, words): most potent agonists
[2]; co-expressing GαqG66D, Fig 1D
  rank order of potency, Ca^2+ mobilisation: L-ornithine > L-arginine = L-lysine

## C=C[C@@]1(C)CC(=O)[C@]2(O)[C@@]3(C)[C@@H](O)CCC(C)(C)[C@@H]3[C@H](O)[C@H](OC(C)=O)[C@@]2(C)O1 [forskolin]
[3]
  stimulation of cAMP accumulation: robust increases in cAMP levels

## YLYQWLGAPVPYPDPLEPRREVCELNPDCDELADHIGFQEAYRRFYGPV-NH2/-COOH (disulfide) [human synthetic OCN (acid form), synthetic de-carboxylated human osteocalcin, Federation Bioscience]
[4]
  GLP-1 release, OCN: did not increase GLP-1 release
[5]
  insulin secretion, OCN: no significant effect

## mouse synthetic OCN: synthetic de-carboxylated mouse osteocalcin, Federation Bioscience (YLGASVPSPDPLEPTREQCELNPACDELSDQYGLKTAYKRIYGITI-OH; disulfide 19-25 (inferred); not fully specified)
[6]
  change in cell impedance (cell index): significant changes in cell impedance; also recorded: Concentration-dependent increases in cell index
[7]
  insulin secretion, OCN: did not affect insulin secretion
